Like-named read-outs stand apart in the source and are kept apart here.
Legend:
Assay type in all cases: binding
[1] = biological target: T1, HeLa cell extract proteins (Homo sapiens, UniProt Q6R327)
T1 construct: endogenous in cells; host or cells: HeLa cell extract

[2] = biological target: T2, HeLa cell extract proteins (Homo sapiens, UniProt P69905)
T2 construct: endogenous in cells; host or cells: HeLa cell extract

[3] = biological target: T3, HeLa cell extract proteins (Homo sapiens, UniProt Q93099)
T3 construct: endogenous in cells; host or cells: HeLa cell extract
T3 sequence (Q93099 1-445): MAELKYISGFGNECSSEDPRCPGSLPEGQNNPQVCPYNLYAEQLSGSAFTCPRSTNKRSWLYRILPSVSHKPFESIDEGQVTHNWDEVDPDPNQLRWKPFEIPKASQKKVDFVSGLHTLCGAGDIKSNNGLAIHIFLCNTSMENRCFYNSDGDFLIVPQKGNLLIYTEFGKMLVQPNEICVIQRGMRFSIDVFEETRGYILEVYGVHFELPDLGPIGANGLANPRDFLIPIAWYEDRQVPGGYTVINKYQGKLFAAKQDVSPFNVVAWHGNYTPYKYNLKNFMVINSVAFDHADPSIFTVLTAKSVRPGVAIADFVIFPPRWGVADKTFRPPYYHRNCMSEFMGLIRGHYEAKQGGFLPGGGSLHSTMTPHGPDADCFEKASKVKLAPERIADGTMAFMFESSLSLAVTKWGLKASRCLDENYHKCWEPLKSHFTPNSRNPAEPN

[4] = biological target: T4, HeLa cell extract proteins (Homo sapiens, UniProt Q9NWZ8)
T4 construct: endogenous in cells; host or cells: HeLa cell extract
T4 sequence (Q9NWZ8 1-242): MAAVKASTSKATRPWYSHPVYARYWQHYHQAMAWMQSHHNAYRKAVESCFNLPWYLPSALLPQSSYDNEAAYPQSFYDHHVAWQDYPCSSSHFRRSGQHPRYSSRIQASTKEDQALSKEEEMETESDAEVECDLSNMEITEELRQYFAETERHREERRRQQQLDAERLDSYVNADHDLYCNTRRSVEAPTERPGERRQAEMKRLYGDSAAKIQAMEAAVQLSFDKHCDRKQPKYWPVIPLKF

[5] = biological target: T5, HeLa cell extract proteins (Homo sapiens, UniProt Q8IWA4)
T5 construct: endogenous in cells; host or cells: HeLa cell extract
T5 sequence (Q8IWA4 1-741): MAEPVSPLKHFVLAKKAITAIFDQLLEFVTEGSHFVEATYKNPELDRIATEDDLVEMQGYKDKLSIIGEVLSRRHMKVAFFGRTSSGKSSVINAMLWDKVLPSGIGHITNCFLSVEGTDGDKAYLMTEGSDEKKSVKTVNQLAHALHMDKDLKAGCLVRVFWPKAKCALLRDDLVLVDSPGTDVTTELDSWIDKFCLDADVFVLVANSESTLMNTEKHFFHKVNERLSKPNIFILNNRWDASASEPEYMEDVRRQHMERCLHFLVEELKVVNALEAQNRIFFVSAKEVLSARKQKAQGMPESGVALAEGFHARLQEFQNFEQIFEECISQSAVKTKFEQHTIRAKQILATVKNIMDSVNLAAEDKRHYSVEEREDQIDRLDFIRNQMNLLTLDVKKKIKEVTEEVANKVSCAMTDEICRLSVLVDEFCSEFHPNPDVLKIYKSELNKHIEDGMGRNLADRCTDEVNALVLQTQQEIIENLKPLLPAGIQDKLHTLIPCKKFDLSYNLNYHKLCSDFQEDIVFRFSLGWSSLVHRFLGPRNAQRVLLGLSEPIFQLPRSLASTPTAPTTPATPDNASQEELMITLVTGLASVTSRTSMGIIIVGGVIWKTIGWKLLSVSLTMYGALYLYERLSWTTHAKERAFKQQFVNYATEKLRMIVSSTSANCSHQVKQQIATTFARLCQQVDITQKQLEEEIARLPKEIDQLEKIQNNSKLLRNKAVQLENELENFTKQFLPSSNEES

[6] = biological target: T6, HeLa cell extract proteins (Homo sapiens, UniProt O00165); conditions: captured protein HAX1; HeLa
T6 construct: endogenous in cells; host or cells: HeLa cell extract
T6 sequence (O00165 whole entry): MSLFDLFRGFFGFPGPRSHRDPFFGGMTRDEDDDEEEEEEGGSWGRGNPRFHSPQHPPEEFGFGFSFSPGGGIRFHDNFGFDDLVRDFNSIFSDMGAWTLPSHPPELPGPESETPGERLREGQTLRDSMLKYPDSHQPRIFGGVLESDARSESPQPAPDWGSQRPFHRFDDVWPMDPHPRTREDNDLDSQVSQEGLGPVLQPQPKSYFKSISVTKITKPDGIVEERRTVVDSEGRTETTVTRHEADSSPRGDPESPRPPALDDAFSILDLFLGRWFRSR

[7] = biological target: T7, HeLa cell extract proteins (Homo sapiens, UniProt Q9UJ70); conditions: captured protein NAGK; HeLa
T7 construct: endogenous in cells; host or cells: HeLa cell extract
T7 sequence (Q9UJ70 whole entry): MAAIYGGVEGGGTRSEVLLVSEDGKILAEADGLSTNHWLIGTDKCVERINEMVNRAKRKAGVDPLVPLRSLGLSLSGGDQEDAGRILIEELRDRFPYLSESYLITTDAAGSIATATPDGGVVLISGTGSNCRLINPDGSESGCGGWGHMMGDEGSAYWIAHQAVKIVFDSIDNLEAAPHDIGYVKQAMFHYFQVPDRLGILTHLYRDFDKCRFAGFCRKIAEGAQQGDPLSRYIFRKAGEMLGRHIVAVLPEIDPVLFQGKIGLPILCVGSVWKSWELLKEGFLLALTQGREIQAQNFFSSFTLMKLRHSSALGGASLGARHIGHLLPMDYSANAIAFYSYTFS

[8] = biological target: T8, HeLa cell extract proteins (Homo sapiens, UniProt P04004); conditions: HeLa; protein VTN
T8 construct: endogenous in cells; host or cells: HeLa cell extract
T8 sequence (P04004 20-478): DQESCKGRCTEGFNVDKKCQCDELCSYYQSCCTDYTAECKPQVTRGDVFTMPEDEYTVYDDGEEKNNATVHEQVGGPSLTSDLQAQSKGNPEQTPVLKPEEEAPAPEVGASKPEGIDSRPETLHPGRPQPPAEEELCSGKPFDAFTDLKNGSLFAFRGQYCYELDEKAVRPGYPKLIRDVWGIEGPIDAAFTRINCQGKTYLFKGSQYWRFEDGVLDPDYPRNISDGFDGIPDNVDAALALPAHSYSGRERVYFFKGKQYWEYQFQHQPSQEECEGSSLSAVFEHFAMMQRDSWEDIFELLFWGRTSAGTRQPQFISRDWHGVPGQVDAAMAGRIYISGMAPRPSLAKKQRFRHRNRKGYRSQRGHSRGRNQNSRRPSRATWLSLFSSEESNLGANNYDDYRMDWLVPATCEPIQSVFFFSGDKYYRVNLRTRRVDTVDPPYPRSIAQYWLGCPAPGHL

[9] = biological target: T9, HeLa cell extract proteins (Homo sapiens, UniProt P50748); conditions: HeLa; protein KNTC1
T9 construct: endogenous in cells; host or cells: HeLa cell extract
T9 sequence (P50748 whole entry): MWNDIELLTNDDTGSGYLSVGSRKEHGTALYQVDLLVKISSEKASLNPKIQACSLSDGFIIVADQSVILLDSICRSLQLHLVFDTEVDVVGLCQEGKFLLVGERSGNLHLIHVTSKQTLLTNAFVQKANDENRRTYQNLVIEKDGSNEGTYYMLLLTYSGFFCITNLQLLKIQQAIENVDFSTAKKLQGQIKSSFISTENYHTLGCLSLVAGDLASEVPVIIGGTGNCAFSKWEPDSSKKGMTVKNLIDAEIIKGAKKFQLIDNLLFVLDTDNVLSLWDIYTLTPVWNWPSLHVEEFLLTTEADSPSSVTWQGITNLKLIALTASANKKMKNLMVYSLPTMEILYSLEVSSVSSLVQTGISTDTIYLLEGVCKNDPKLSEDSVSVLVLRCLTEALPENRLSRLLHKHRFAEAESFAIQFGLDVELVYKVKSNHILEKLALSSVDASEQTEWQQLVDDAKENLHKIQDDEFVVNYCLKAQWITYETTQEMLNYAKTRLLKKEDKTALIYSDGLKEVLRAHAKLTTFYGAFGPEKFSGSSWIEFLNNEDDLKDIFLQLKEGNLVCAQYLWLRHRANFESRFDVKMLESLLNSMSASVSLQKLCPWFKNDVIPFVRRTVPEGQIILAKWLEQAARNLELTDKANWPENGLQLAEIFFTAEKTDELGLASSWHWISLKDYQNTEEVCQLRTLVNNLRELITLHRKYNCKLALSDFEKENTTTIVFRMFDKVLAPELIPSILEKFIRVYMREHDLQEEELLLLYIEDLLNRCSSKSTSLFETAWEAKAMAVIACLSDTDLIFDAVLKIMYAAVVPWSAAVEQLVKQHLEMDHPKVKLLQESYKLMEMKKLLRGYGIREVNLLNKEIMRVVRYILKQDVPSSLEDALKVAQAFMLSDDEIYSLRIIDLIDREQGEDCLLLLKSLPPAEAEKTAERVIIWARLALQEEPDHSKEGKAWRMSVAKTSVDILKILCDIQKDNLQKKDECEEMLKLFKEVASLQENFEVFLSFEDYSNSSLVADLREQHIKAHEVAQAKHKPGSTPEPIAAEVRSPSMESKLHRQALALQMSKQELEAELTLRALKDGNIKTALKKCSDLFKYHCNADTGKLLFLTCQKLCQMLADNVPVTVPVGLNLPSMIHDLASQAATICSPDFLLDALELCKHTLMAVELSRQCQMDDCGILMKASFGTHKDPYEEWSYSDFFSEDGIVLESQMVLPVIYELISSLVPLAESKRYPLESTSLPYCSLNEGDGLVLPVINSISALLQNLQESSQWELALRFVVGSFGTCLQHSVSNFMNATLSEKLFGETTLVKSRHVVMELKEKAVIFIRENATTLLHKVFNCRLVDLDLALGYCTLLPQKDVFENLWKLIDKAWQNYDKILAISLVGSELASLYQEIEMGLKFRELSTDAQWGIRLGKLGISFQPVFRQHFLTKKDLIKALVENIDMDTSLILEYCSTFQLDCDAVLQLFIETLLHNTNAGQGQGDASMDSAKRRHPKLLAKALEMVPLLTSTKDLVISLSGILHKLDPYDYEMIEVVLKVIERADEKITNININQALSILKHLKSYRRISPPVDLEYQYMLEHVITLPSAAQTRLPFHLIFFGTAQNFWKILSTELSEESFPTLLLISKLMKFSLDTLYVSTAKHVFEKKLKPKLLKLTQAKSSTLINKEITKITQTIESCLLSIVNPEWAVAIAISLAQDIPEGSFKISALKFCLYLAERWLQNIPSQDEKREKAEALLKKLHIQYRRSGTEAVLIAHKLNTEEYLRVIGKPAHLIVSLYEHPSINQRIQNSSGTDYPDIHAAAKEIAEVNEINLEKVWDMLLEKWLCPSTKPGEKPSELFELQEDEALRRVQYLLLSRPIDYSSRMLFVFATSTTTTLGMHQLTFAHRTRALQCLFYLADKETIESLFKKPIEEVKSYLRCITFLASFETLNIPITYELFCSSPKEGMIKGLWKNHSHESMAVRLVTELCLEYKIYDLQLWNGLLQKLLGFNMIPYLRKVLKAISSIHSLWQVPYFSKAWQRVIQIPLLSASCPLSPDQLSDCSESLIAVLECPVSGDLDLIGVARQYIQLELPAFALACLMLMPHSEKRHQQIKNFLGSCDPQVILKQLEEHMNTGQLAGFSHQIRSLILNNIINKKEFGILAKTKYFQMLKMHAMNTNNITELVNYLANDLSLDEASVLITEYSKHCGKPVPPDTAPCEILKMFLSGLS

[10] = biological target: T10, HeLa cell extract proteins (Homo sapiens, UniProt Q8WUK0); conditions: captured protein PTPMT1; HeLa
T10 construct: endogenous in cells; host or cells: HeLa cell extract
T10 sequence (Q8WUK0 28-201): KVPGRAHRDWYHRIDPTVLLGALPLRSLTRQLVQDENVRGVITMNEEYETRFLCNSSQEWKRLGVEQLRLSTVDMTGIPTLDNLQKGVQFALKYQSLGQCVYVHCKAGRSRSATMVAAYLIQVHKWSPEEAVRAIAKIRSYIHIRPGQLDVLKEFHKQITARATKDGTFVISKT

[11] = biological target: T11, HeLa cell extract proteins (Homo sapiens, UniProt O75396); conditions: protein SEC22B; HeLa
T11 construct: endogenous in cells; host or cells: HeLa cell extract
T11 sequence (O75396 1-215): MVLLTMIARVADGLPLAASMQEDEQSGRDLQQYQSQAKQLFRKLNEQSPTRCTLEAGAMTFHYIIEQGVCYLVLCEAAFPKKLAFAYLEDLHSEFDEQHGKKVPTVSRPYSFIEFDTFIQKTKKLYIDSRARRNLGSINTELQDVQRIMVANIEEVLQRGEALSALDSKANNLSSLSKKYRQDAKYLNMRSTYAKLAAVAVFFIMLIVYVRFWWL

[12] = HeLa, protein HBA1 (HEMOGLOBIN SUBUNIT ALPHA)

T1 sequence (Q6R327 whole entry): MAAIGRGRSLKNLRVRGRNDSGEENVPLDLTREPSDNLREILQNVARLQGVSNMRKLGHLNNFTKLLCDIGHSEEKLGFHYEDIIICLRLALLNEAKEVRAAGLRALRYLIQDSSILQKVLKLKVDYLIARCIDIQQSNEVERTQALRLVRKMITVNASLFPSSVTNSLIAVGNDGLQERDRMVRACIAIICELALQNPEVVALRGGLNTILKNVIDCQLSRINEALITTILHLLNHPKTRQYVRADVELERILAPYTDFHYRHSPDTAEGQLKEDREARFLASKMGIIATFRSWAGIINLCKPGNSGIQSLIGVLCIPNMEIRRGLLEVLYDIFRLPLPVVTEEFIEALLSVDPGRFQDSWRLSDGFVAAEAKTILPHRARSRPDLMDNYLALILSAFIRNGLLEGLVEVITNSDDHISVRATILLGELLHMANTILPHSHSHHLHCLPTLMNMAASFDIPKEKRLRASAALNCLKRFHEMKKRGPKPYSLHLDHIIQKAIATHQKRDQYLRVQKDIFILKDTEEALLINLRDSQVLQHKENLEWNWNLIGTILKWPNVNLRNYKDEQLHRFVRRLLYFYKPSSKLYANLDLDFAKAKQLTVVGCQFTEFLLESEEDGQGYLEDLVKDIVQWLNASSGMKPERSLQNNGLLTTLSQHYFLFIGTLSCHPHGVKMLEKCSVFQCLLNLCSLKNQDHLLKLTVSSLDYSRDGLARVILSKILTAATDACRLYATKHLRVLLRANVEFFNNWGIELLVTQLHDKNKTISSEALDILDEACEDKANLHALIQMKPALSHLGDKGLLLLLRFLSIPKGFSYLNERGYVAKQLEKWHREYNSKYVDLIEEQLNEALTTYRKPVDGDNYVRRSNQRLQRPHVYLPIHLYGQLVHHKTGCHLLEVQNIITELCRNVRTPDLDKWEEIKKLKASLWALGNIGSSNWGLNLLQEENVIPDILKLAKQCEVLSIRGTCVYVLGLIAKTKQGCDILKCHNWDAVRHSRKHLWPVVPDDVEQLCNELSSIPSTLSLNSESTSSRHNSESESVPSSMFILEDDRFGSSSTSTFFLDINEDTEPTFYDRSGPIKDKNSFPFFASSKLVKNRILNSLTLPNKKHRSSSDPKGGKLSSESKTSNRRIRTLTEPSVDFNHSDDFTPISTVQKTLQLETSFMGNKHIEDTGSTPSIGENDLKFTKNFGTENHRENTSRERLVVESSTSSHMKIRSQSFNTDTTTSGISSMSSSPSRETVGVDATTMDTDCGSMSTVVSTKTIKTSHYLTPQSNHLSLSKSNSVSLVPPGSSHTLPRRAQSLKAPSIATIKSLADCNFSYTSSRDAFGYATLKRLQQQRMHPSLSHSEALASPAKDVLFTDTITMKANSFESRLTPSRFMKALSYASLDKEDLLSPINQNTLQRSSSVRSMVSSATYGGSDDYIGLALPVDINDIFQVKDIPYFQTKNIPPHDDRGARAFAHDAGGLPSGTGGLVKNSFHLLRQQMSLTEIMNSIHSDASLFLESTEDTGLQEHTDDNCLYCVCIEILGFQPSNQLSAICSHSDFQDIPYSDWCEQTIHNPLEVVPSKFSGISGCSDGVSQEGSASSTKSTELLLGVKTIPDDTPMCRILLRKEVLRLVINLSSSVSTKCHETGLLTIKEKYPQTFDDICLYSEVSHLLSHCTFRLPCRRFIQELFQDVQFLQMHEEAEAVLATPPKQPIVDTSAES
T2 sequence (P69905 whole entry): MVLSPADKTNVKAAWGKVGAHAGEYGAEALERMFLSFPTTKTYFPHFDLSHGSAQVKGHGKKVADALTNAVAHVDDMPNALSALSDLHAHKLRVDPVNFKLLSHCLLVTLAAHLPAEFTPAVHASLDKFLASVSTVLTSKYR

## Nc1nc2c(c(=O)[nH]1)N(C=O)C(CNc1ccc(C(=O)N[C@@H](CCC(=O)O)C(=O)O)cc1)CN2 (some centres unmarked) [LEU, leucovorin]
[1]; HeLa, protein RICTOR
  fold changes relative to vehicle control: 0.92
[2]; [12]
  fold changes relative to vehicle control: 1.29
[3]; HeLa, protein HGD
  fold changes relative to vehicle control: 0.87
[4]; HeLa, protein GEMIN8
  fold changes relative to vehicle control: 0.97
[5]; protein MFN1, HeLa
  fold changes relative to vehicle control: 0.81

## NCCCNc1ccc(C(=O)NC(CCC(=O)O)C(=O)O)cc1 (centres unmarked) [compound 7]
[1]; HeLa, protein RICTOR
  fold changes relative to vehicle control: 1.11
[2]; [12]
  fold changes relative to vehicle control: 0.76
[3]; HeLa, protein HGD
  fold changes relative to vehicle control: 0.8
[4]; HeLa, protein GEMIN8
  fold changes relative to vehicle control: 0.86
[5]; protein MFN1, HeLa
  fold changes relative to vehicle control: 1.02

## CCCCCCOc1cccc(Cc2cnc(N)nc2N)c1 [compound 2]
[6]
  fold changes relative to vehicle control: 1.1
[7]
  fold changes relative to vehicle control: 1.2
[8]
  fold changes relative to vehicle control: 0.91
[9]
  fold changes relative to vehicle control: 1.13
[10]
  fold changes relative to vehicle control: 0.91
[11]
  fold changes relative to vehicle control: 1.41

## CCCCCCOc1ccc(Cc2cnc(N)nc2N)cc1 [compound 1]
[6]
  fold changes relative to vehicle control: 0.92
[7]
  fold changes relative to vehicle control: 0.83
[8]
  fold changes relative to vehicle control: 1
[9]
  fold changes relative to vehicle control: 1.15
[10]
  fold changes relative to vehicle control: 0.88
[11]
  fold changes relative to vehicle control: 0.96

## Nc1nc2cccc(-c3ccccc3)c2n1Cc1ccc(Cl)c(Cl)c1 [compound 3]
[6]
  fold changes relative to vehicle control: 1.13
[7]
  fold changes relative to vehicle control: 0.77
[8]
  fold changes relative to vehicle control: 1.05
[9]
  fold changes relative to vehicle control: 1.17
[10]
  fold changes relative to vehicle control: 0.93
[11]
  fold changes relative to vehicle control: 0.89

## NCCOCCOCC(=O)Nc1nc2ncc(CNc3ccc(C(=O)NC(CCC(=O)O)C(=O)O)cc3)nc2c(=O)[nH]1 (centres unmarked) [compound 6]
[1]; HeLa, protein RICTOR
  fold changes relative to vehicle control: 1.11
[2]; [12]
  fold changes relative to vehicle control: 1.05
[3]; HeLa, protein HGD
  fold changes relative to vehicle control: 1.01
[4]; HeLa, protein GEMIN8
  fold changes relative to vehicle control: 0.8
[5]; protein MFN1, HeLa
  fold changes relative to vehicle control: 0.99

## Nc1nc2[nH]cc(CCc3ccc(C(=O)N[C@@H](CCC(=O)O)C(=O)O)cc3)c2c(=O)[nH]1 [PTX, pemetrexed]
[1]
  fold changes relative to vehicle control: 0.97
[2]
  fold changes relative to vehicle control: 0.97
[3]
  fold changes relative to vehicle control: 1.01
[4]
  fold changes relative to vehicle control: 0.97
[5]
  fold changes relative to vehicle control: 0.89

Source: publication PMC6199744, “Development of Chemical Proteomics for the Folateome and Analysis of the Kinetoplastid Folateome” (ACS Infectious Diseases, 2018)
